Test results: PMC9107566, “Metabolic engineering of Escherichia coli for efficient degradation of 4-fluorophenol” (AMB Express, 2022)

Molecular target: T1, FpdA2 (Arthrobacter sp. IF1, UniProt D1MYT1)
T1 construct: co-expressed with flavin reductase FpdB, FpdC and FpdD; not purified
T1 sequence (D1MYT1 1-535): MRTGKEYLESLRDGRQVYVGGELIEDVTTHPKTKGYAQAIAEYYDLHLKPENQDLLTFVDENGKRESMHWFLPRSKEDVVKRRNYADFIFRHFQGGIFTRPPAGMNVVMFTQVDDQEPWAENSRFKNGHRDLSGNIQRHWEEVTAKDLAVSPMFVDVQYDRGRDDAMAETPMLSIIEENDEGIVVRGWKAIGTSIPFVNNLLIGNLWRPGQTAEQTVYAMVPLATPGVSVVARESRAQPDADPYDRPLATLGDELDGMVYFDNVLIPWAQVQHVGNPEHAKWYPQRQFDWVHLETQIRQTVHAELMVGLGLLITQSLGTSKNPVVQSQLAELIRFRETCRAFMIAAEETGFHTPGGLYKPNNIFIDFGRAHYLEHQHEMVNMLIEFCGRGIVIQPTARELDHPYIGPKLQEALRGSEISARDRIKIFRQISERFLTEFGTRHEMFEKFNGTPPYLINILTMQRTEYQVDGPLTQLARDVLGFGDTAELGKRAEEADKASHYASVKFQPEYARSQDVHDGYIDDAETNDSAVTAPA
Assay: whole-cell degradation by BL-fpd, HPLC of substrate
Assay type: cell-based
Conditions: 2 mM substrate, 10 uM FAD added, 37 C, 3 h; induced cells co-expressing FpdB, FpdC, FpdD; empty-vector strain BL-control as control

In the case of `Oc1ccc(Br)cc1` [4-bromophenol], the “whole-cell degradation by BL-fpd, HPLC of substrate” value is reported as “FpdA2 showed the highest activity towards 4-bromophenol among the substrates tested”.
